From ChEMBL document CHEMBL1133185, “Inhibition of clinically relevant mutant variants of HIV-1 by quinazolinone non-nucleoside reverse transcriptase inhibitors” (J Med Chem, 2000) come the findings set out here.

Test [1] has as its system Human immunodeficiency virus 1. The test can be described thus: Potency of second-generation NNRTIs against Mutant HIV-1 K103N free drug. It counts as functional.
Test [2] concerns Human immunodeficiency virus 1. In words: Potency of second-generation NNRTIs against Mutant HIV-1 K103N plasma; Vlaue ranges from 3400-8100. Type of test: functional.
The test system of test [3] is Human immunodeficiency virus 1. In words: Antiviral activity toward K103N mutant HIV-1 virus as protein binding adjusted (PB adj). Type of test: functional.
In test [4] the test system is Human immunodeficiency virus 1. The test can be described thus: Antiviral activity against HIV-1 K103N mutant virus. Particulars: Human immunodeficiency virus 1. Type of test: functional.
Test [5] has as its system Human immunodeficiency virus 1. In words: In vitro antiviral activity against HIV-1 (L100I). It counts as functional.
Test [6] deals with Human immunodeficiency virus 1. In words: Potency of second-generation NNRTIs against Mutant HIV-1 sL100I. Type of test: functional.
Test [7] relates to Human immunodeficiency virus 1. The test can be described thus: Potency of second-generation NNRTIs against Mutant HIV-1 sL100I plasma; Value ranges from 6600-15700. It counts as functional.
Test [8] concerns MT2. In words: Antiviral activity of Protein Binding of compound was evaluated for HIV-2 virus expressed MT-2 by yield. Type of test: functional, Human immunodeficiency virus 2. Particulars: Homo sapiens.
The subject of test [9] is MT2. The test can be described thus: Antiviral activity of Protein Binding of compound was evaluated for E virus expressed MT-2 by yield. It counts as functional, Human immunodeficiency virus 1. Particulars: Homo sapiens.
Test [10] has as its system MT2. In words: Antiviral activity of Protein Binding of compound was evaluated for PB shift virus expressed MT-2 by RNA. The note with it: Homo sapiens. Type of test: functional, Human immunodeficiency virus 1.
Test [11] deals with MT2. The test can be described thus: Antiviral activity of Protein Binding of compound was evaluated for RF virus expressed MT-2 by RNA. It counts as functional, Human immunodeficiency virus 1. The note with it: Homo sapiens.
The test system of test [12] is MT2. The test can be described thus: Antiviral activity of Protein Binding of compound was evaluated for RF virus expressed MT-2 by yield. Particulars: Homo sapiens. Type of test: functional, Human immunodeficiency virus 1.
Test [13] concerns Human immunodeficiency virus 1. The test can be described thus: Potency of second-generation NNRTIs against Mutant HIV-1 sV179D/L100I/Y181C. It counts as functional.
Test [14] concerns Human immunodeficiency virus 1. The test can be described thus: Potency of second-generation NNRTIs against Mutant HIV-1 sV179D/L100I/Y181C free drug. Type of test: functional.
The subject of test [15] is Human immunodeficiency virus 1. The test can be described thus: Potency of second-generation NNRTIs against Mutant HIV-1 sV179D/L100I/Y181C plasma; value ranges from 130000-309500. It counts as functional.
Test [16] has as its system Human immunodeficiency virus 1. In words: Antiviral activity of Protein Binding of compound was evaluated for A 018C virus expressed PBMC by P24. It counts as functional.
The subject of test [17] is Human immunodeficiency virus 1. The test can be described thus: Antiviral activity of Protein Binding of compound was evaluated for Thai 9466 virus expressed PBMC by P24. It counts as functional.
Test [18] can be described thus: percentage in tissue culture medium.
Test [19] deals with Human immunodeficiency virus 1. In words: Compound was evaluated for the inhibition of wilde-type RF strain of HIV-1. It counts as functional.
The next test is filed under the species Homo sapiens. The test can be described thus: percentage in human serum; value ranges from -0.2-0.5. Type of test: functional.
Test [20] deals with Human immunodeficiency virus 1. In words: Potency of second-generation NNRTIs against Mutant HIV-1 sL100I free drug. It counts as functional.
Test [21] deals with Human immunodeficiency virus 1. In words: Potency of second-generation NNRTIs against Mutant HIV-1 K103N. It counts as functional.
Test [22] has as its system Human immunodeficiency virus 1. The test can be described thus: Compound was evaluated for antiviral activity against L100I mutant virus. Type of test: functional.
Test [23] has as its target Human immunodeficiency virus type 1 reverse transcriptase (Human immunodeficiency virus 1, UniProt Q72547). In words: Inhibition of HIV-1 reverse transcriptase.
The test system of test [24] is Human immunodeficiency virus 1. In words: Antiviral activity was evaluated for the inhibition of wild-type RF strain of HIV-1 in an in vitro enzyme assay. Type of test: functional.
Test [25] has as its system Human immunodeficiency virus 1. In words: Compound was evaluated for the inhibition of human plasma protein binding adjusted (PB Adj) wild-type RF strain of HIV-1. Type of test: functional. Particulars: Human immunodeficiency virus 1, Plasma.

Molecules are shown by their SMILES. Bounds are passed on as bounds.

Turning to `O=C1Nc2ccc(Cl)cc2[C@@](C#CC2CC2)(C(F)(F)F)O1` [EFAVIRENZ], the IC90 turned out to be 17 nM in test [1]; 8100 nM in test [2]; 1060 nM in test [3]; 64 nM in test [4]; 77 nM in test [5]; 120 nM in [6]. Also, the IC90 in test [7] was 15700 nM; in the test on MT2 [8] it was > 3000 nM; in the test on MT2 [9], 2.8 nM; in the test with MT2 [10] it was 17 nM; in the test on MT2 [11], 1.7 nM; in the test with MT2 [12] it was 2.4 nM. The IC90 in test [13] came to 2400 nM; in test [14], 650 nM; in test [15] it was 310000 nM; in test [16] it was 2.8 nM; in test [17], 8.5 nM; in test [19], 1.7 nM. Also, the values for the IC90 in [20] and in test [21] were 33 nM and 64 nM, respectively. Moreover, the Free in [18] was determined as 27%; in the test filed under Homo sapiens, 0.5%.
Regarding `O=C1Nc2ccc(F)c(Cl)c2[C@@](C#Cc2ccccn2)(C(F)(F)F)N1`, the IC90 in [22] came to 44 nM; in test [3], 1310 nM; in test [4] it was 73 nM; in test [24], 2.3 nM; in [25] it was 41 nM. In [23], this compound returned an IC50 of 80 nM.
